How the values were obtained:
HCT-15 = assay: panel of 60 human tumor cell lines, growth inhibition (Colon Cancer)
NCI-H322M = assay: panel of 60 human tumor cell lines, growth inhibition (Non-Small Cell Lung Cancer)
BT-549 = assay: panel of 60 human tumor cell lines, growth inhibition (Breast Cancer)
SK-MEL-2 = assay: panel of 60 human tumor cell lines, growth inhibition (Melanoma)
786-0 = assay: panel of 60 human tumor cell lines, growth inhibition (Renal Cancer)
HCT-116 = assay: panel of 60 human tumor cell lines, growth inhibition (Colon Cancer); settings: for Percent Growth: HCT-116; for GI50: HCT-116, HCT-116
NCI-H226 = assay: panel of 60 human tumor cell lines, growth inhibition (Non-Small Cell Lung Cancer)
MCF7 = assay: panel of 60 human tumor cell lines, growth inhibition (Breast Cancer); settings: for GI50: MCF7, MCF7; for Percent Growth: MCF7

Compound: C=C1C(=O)O[C@H]2[C@H]1CC/C(COC(=O)NCCc1ccccn1)=C\CC[C@@]1(C)O[C@@H]21 [JVM 61, ((1aR,7aS,10aS,10bS,E)-1a-methyl-8-methylene-9-oxo-1a,2,3,6,7,7a,8,9,10a,10b-decahydrooxireno[2′,3′:9,10]cyclodeca[1,2-b]furan-5-yl)methyl-(2-(pyridin-2-yl)ethyl)carbamate]
- Percent Growth (HCT-15; HCT-15, Log10 Concentration −8.0): 98%
- GI50 (HCT-15; Homo sapiens, HCT-15): 3.5 µM
- CC50 (HCT-15; Homo sapiens, HCT-15, read-out: LC50): 50.1 µM
- IC (TGI) (HCT-15; Homo sapiens, HCT-15, read-out: TGI): 15.4 µM
- GI50 (NCI-H322M; Homo sapiens): 22.5 µM
- CC50 (NCI-H322M; Homo sapiens, read-out: LC50): > 100 µM
- IC (TGI) (NCI-H322M; Homo sapiens, read-out: TGI): 63.4 µM
- Percent Growth (NCI-H322M; Log10 Concentration −4.0): −18%
- Percent Growth (NCI-H322M; Log10 Concentration −5.0): 87%
- Percent Growth (NCI-H322M; Log10 Concentration −6.0): 105%
- Percent Growth (NCI-H322M; Log10 Concentration −7.0): 103%
- Percent Growth (NCI-H322M; Log10 Concentration −8.0): 106%
- Percent Growth (BT-549; BT-549, Log10 Concentration −4.0): −95%
- Percent Growth (BT-549; BT-549, Log10 Concentration −6.0): 85%
- Percent Growth (BT-549; BT-549, Log10 Concentration −7.0): 96%
- Percent Growth (BT-549; BT-549, Log10 Concentration −8.0): 96%
- GI50 (BT-549; Homo sapiens, BT-549): 2.6 µM
- CC50 (BT-549; Homo sapiens, BT-549, read-out: LC50): 33.6 µM
- IC (TGI) (BT-549; Homo sapiens, BT-549, read-out: TGI): 10.1 µM
- GI50 (SK-MEL-2; Homo sapiens, SK-MEL-2): 15.1 µM
- CC50 (SK-MEL-2; Homo sapiens, SK-MEL-2, read-out: LC50): 69 µM
- IC (TGI) (SK-MEL-2; Homo sapiens, SK-MEL-2, read-out: TGI): 32.3 µM
- Percent Growth (SK-MEL-2; SK-MEL-2, Log10 Concentration −4.0): −74%
- Percent Growth (SK-MEL-2; SK-MEL-2, Log10 Concentration −5.0): 77%
- Percent Growth (SK-MEL-2; SK-MEL-2, Log10 Concentration −6.0): 112%
- Percent Growth (SK-MEL-2; SK-MEL-2, Log10 Concentration −7.0): 110%
- Percent Growth (SK-MEL-2; SK-MEL-2, Log10 Concentration −8.0): 109%
- Percent Growth (786-0; 786-0, Log10 Concentration −4.0): −93%
- Percent Growth (786-0; 786-0, Log10 Concentration −5.0): 15%
- Percent Growth (786-0; 786-0, Log10 Concentration −6.0): 96%
- Percent Growth (786-0; 786-0, Log10 Concentration −7.0): 101%
- Percent Growth (786-0; 786-0, Log10 Concentration −8.0): 101%
- GI50 (786-0; Homo sapiens, 786-0): 3.7 µM
- CC50 (786-0; Homo sapiens, 786-0, read-out: LC50): 39.8 µM
- IC (TGI) (786-0; Homo sapiens, 786-0, read-out: TGI): 13.8 µM
- Percent Growth (HCT-116; Log10 Concentration −4.0): −99%
- Percent Growth (HCT-116; Log10 Concentration −5.0): −33%
- Percent Growth (HCT-116; Log10 Concentration −6.0): 82%
- Percent Growth (HCT-116; Log10 Concentration −7.0): 102%
- Percent Growth (HCT-116; Log10 Concentration −8.0): 99%
- GI50 (HCT-116; Homo sapiens): 1.59 µM
- GI50 (HCT-116; Homo sapiens, 5-dose assay): 1.89 µM
- CC50 (HCT-116; Homo sapiens, HCT-116, read-out: LC50): 17.9 µM
- IC (TGI) (HCT-116; Homo sapiens, HCT-116, read-out: TGI): 5.12 µM
- GI50 (NCI-H226; Homo sapiens, NCI-H226): 14.1 µM
- CC50 (NCI-H226; Homo sapiens, NCI-H226, read-out: LC50): 81.3 µM
- IC (TGI) (NCI-H226; Homo sapiens, NCI-H226, read-out: TGI): 33.8 µM
- Percent Growth (NCI-H226; NCI-H226, Log10 Concentration −4.0): −62%
- Percent Growth (NCI-H226; NCI-H226, Log10 Concentration −5.0): 70%
- Percent Growth (NCI-H226; NCI-H226, Log10 Concentration −6.0): 91%
- Percent Growth (NCI-H226; NCI-H226, Log10 Concentration −7.0): 92%
- Percent Growth (NCI-H226; NCI-H226, Log10 Concentration −8.0): 94%
- GI50 (MCF7; Homo sapiens): 2.65 µM
- GI50 (MCF7; Homo sapiens, 5-dose assay): 2.85 µM
- CC50 (MCF7; Homo sapiens, MCF7, read-out: LC50): 61.4 µM
- IC (TGI) (MCF7; Homo sapiens, MCF7, read-out: TGI): 13 µM
- Percent Growth (MCF7; Log10 Concentration −4.0): −66%
- Percent Growth (MCF7; Log10 Concentration −5.0): 8%
- Percent Growth (MCF7; Log10 Concentration −6.0): 85%
- Percent Growth (MCF7; Log10 Concentration −8.0): 91%
